Reference: ChEMBL document CHEMBL4840313, “Bioisosteric replacements of the indole moiety for the development of a potent and selective PI3Kδ inhibitor: Design, synthesis and biological evaluation” (Eur J Med Chem, 2021)

What was measured:
[1] = Acute toxicity in ICR mouse assessed as behavioral changes at 90 mg/kg, po administered for 7 days and observed for 7 days; type: organism-based; conditions: in vivo, 168 h, time 7 day
[2] = Half life in Sprague-Dawley rat at 10 mg/kg, po; type: ADME, organism-based; conditions: in vivo
[3] = Induction of apoptosis in human MOLM16 cells assessed as early apoptotic cells at 1 uM incubated for 48 hrs by Annexin V and propidium iodide Staining based assay (reference value: 16.4 %); type: functional, MOLM-16
[4] = Induction of cell cycle arrest in human MOLM16 cells assessed as accumulation at S phase at 2 uM incubated for 24 hrs by propidium iodide /RNase staining based flow cytometry(Rvb =31.8 %); type: functional, MOLM-16
EOL1 = test: Antiproliferative activity against human EOL1 cells assessed as reduction in cell viability measured after 48 hrs by CCK8 assay; type: functional, cell-based; conditions: EOL1, 48 h
[5] = Induction of cell cycle arrest in human MOLM16 cells assessed as accumulation at subG1 phase at 2 uM incubated for 24 hrs by propidium iodide /RNase staining based flow cytometry(Rvb =4.02 %); type: functional, MOLM-16
[6] = Toxicity in BALB/c nude mouse xenografted with human MOLM16 cells assessed as change in body weight at 20 to 40 mg/kg, po administered once daily for 14 days; type: organism-based; conditions: in vivo, 336 h, dose 20-40 mg/kg, time 14 day
[7] = Induction of apoptosis in human MOLM16 cells assessed as necrotic cells at 5 uM incubated for 48 hrs by Annexin V and propidium iodide Staining based assay (reference value: 0.44 %); type: functional, MOLM-16
[8] = Induction of cell cycle arrest in human MOLM16 cells assessed as accumulation at G1 phase at 5 uM incubated for 24 hrs by propidium iodide /RNase staining based flow cytometry(Rvb =46.8 %); type: functional, MOLM-16
[9] = Acute toxicity in ICR mouse assessed as damage in liver at 90 mg/kg, po measured after 7 days by H&E staining based immunohistochemistry; type: organism-based; conditions: in vivo, 168 h, time 7 day
[10] = Induction of apoptosis in human MOLM16 cells assessed as viable cells at 2 uM incubated for 48 hrs by Annexin V and propidium iodide Staining based assay (reference value: 76.3 %); type: functional, MOLM-16; conditions: read-out: Activity
[11] = Induction of cell cycle arrest in human MOLM16 cells assessed as accumulation at G2 phase at 1 uM incubated for 24 hrs by propidium iodide /RNase staining based flow cytometry(Rvb =14.7 %); type: functional, MOLM-16
[12] = Antiproliferative activity against p110 unexpressed human MM1.R cells assessed as reduction in cell viability measured after 48 hrs by CCK8 assay; type: functional; conditions: MM.1R
[13] = Induction of apoptosis in human MOLM16 cells assessed as viable cells at 5 uM incubated for 48 hrs by Annexin V and propidium iodide Staining based assay (reference value: 76.3 %); type: functional, MOLM-16; conditions: read-out: Activity
[14] = Acute toxicity in ICR mouse assessed as survival at 90 mg/kg, po administered for 7 days and observed for 7 days; type: organism-based; conditions: in vivo, 168 h, time 7 day
[15] = Induction of apoptosis in human MOLM16 cells assessed as necrotic cells at 1 uM incubated for 48 hrs by Annexin V and propidium iodide Staining based assay (reference value: 0.44 %); type: functional, MOLM-16
[16] = AUC (0 to t) in Sprague-Dawley rat at 10 mg/kg, po; type: ADME, organism-based; parameters: dose 10 mg/kg; conditions: in vivo
[17] = Induction of apoptosis in human MOLM16 cells assessed as early apoptotic cells at 2 uM incubated for 48 hrs by Annexin V and propidium iodide Staining based assay (reference value: 16.4 %); type: functional, MOLM-16
[18] = Induction of apoptosis in human MOLM16 cells assessed as viable cells at 1 uM incubated for 48 hrs by Annexin V and propidium iodide Staining based assay (reference value: 76.3 %); type: functional, MOLM-16; conditions: read-out: Activity
[19] = Induction of apoptosis in human MOLM16 cells assessed as necrotic cells at 2 uM incubated for 48 hrs by Annexin V and propidium iodide Staining based assay (reference value: 0.44 %); type: functional, MOLM-16
[20] = Induction of apoptosis in human MOLM16 cells assessed as late apoptotic cells at 5 uM incubated for 48 hrs by Annexin V and propidium iodide Staining based assay (reference value: 6.77 %); type: functional, MOLM-16
[21] = Induction of apoptosis in human MOLM16 cells assessed as late apoptotic cells at 1 uM incubated for 48 hrs by Annexin V and propidium iodide Staining based assay (reference value: 6.77 %); type: functional, MOLM-16
[22] = Induction of cell cycle arrest in human MOLM16 cells assessed as accumulation at S phase at 5 uM incubated for 24 hrs by propidium iodide /RNase staining based flow cytometry(Rvb =31.8 %); type: functional, MOLM-16
[23] = AUC (0 to infinity) in Sprague-Dawley rat at 10 mg/kg, po; type: ADME, organism-based; parameters: route oral, time infinity, dose 10 mg/kg; conditions: in vivo
[24] = Oral bioavailability in Sprague-Dawley rat at 10 mg/kg; type: ADME, organism-based; conditions: in vivo
KG-1 = test: Antiproliferative activity against human KG-1 cells assessed as reduction in cell viability measured after 48 hrs by CCK8 assay; type: functional, cell-based; conditions: KG-1, 48 h
[25] = Acute toxicity in ICR mouse assessed as damage in spleen at 90 mg/kg, po measured after 7 days by H&E staining based immunohistochemistry; type: organism-based; conditions: in vivo, 168 h, time 7 day
HL-60 = test: Antiproliferative activity against human HL-60 cells assessed as reduction in cell viability measured after 48 hrs by CCK8 assay; type: functional, cell-based; conditions: HL-60, 48 h
[26] = Induction of cell cycle arrest in human MOLM16 cells assessed as accumulation at subG1 phase at 1 uM incubated for 24 hrs by propidium iodide /RNase staining based flow cytometry(Rvb =4.02 %); type: functional, MOLM-16
[27] = Antiproliferative activity against human MOLM16 cells assessed as reduction in cell viability measured after 48 hrs by CCK8 assay; type: functional, cell-based, MOLM-16; conditions: MOLM16, 48 h
[28] = Induction of apoptosis in human MOLM16 cells assessed as late apoptotic cells at 2 uM incubated for 48 hrs by Annexin V and propidium iodide Staining based assay (reference value: 6.77 %); type: functional, MOLM-16
[29] = AUC (0 to t) in Sprague-Dawley rat at 2 mg/kg, iv; type: ADME, organism-based; parameters: dose 2 mg/kg; conditions: in vivo
[30] = Induction of apoptosis in human MOLM16 cells assessed as early apoptotic cells at 5 uM incubated for 48 hrs by Annexin V and propidium iodide Staining based assay (reference value: 16.4 %); type: functional, MOLM-16
[31] = Half life in Sprague-Dawley rat at 2 mg/kg, iv; type: ADME, organism-based; conditions: in vivo
[32] = AUC (0 to infinity) in Sprague-Dawley rat at 2 mg/kg, iv; type: ADME, organism-based; parameters: time infinity, route intravenous, dose 2 mg/kg; conditions: in vivo
[33] = Induction of cell cycle arrest in human MOLM16 cells assessed as accumulation at G2 phase at 2 uM incubated for 24 hrs by propidium iodide /RNase staining based flow cytometry(Rvb =14.7 %); type: functional, MOLM-16
[34] = Induction of cell cycle arrest in human MOLM16 cells assessed as accumulation at S phase at 1 uM incubated for 24 hrs by propidium iodide /RNase staining based flow cytometry(Rvb =31.8 %); type: functional, MOLM-16
[35] = Induction of cell cycle arrest in human MOLM16 cells assessed as accumulation at G1 phase at 1 uM incubated for 24 hrs by propidium iodide /RNase staining based flow cytometry(Rvb =46.8 %); type: functional, MOLM-16
[36] = Cmax in Sprague-Dawley rat at 10 mg/kg, po; type: ADME, organism-based; parameters: route oral, dose 10 mg/kg; conditions: in vivo
[37] = Induction of cell cycle arrest in human MOLM16 cells assessed as accumulation at subG1 phase at 5 uM incubated for 24 hrs by propidium iodide /RNase staining based flow cytometry(Rvb =4.02 %); type: functional, MOLM-16
[38] = MRT (0 to infinity) in Sprague-Dawley rat at 2 mg/kg, iv; type: ADME, organism-based; conditions: in vivo
[39] = Antitumor activity against human MOLM16 cells xenografted in BALB/c mouse assessed as tumor growth inhibition at 40 mg/kg, po administered daily for 14 days; type: functional, MOLM-16; conditions: 336 h, time 14 day, read-out: TGI
[40] = Volume of distribution in steady state in Sprague-Dawley rat at 2 mg/kg, iv; type: ADME, organism-based; conditions: in vivo
[41] = Acute toxicity in ICR mouse assessed as damage in lung at 90 mg/kg, po measured after 7 days by H&E staining based immunohistochemistry; type: organism-based; conditions: in vivo, 168 h, time 7 day
[42] = Induction of cell cycle arrest in human MOLM16 cells assessed as accumulation at G1 phase at 2 uM incubated for 24 hrs by propidium iodide /RNase staining based flow cytometry(Rvb =46.8 %); type: functional, MOLM-16
[43] = Acute toxicity in ICR mouse assessed as damage in kidney at 90 mg/kg, po measured after 7 days by H&E staining based immunohistochemistry; type: organism-based; conditions: in vivo, 168 h, time 7 day
[44] = Antitumor activity against human MOLM16 cells xenografted in BALB/c mouse assessed as tumor growth inhibition at 20 mg/kg, po administered daily for 14 days; type: functional, MOLM-16; conditions: 336 h, time 14 day, read-out: TGI
[45] = Acute toxicity in ICR mouse assessed as damage in heart at 90 mg/kg, po measured after 7 days by H&E staining based immunohistochemistry; type: organism-based; conditions: in vivo, 168 h, time 7 day
[46] = Tmax in Sprague-Dawley rat at 10 mg/kg, po; type: ADME, organism-based; conditions: in vivo
[47] = Induction of cell cycle arrest in human MOLM16 cells assessed as accumulation at G2 phase at 5 uM incubated for 24 hrs by propidium iodide /RNase staining based flow cytometry(Rvb =14.7 %); type: functional, MOLM-16

O=S(=O)(Nc1cc(-c2cnc3[nH]ncc3c2)cnc1Cl)c1ccccc1
Activity [1]: Non-Toxic
half-life [2]: 3.74 h
Activity [3]: 16%
Activity [4]: 28.6%
IC50 (EOL1): 2820 nM
Activity [5]: 3.27%
Activity [6]: Non-Toxic
Activity [7]: 0.6%
Activity [8]: 49.2%
Activity [9]: Non-Toxic
viability at 2 µM [10]: 57.8%
Activity [11]: 11.8%
IC50 [12]: 23100 nM
viability at 5 µM [13]: 10.7%
Activity [14]: Non-Toxic
Activity [15]: 1.6%
AUC(0-t) [16]: 9040 ng·h/mL
Activity [17]: 24.6%
viability at 1 µM [18]: 69.8%
Activity [19]: 1.47%
Activity [20]: 42.6%
Activity [21]: 13.6%
Activity [22]: 30.1%
AUC(0-inf) [23]: 9220 ng·h/mL
bioavailability [24]: 17.6%
IC50 (KG-1): 5820 nM
Activity [25]: Non-Toxic
IC50 (HL-60): 2250 nM
Activity [26]: 3.5%
IC50 [27]: 870 nM
Activity [28]: 16.1%
AUC(0-t) [29]: 10200 ng·h/mL
Activity [30]: 46.1%
half-life [31]: 7.68 h
AUC(0-inf) [32]: 10500 ng·h/mL
Activity [33]: 10.8%
Activity [34]: 31.1%
Activity [35]: 54.9%
Cmax [36]: 1100 ng/mL
Activity [37]: 11.1%
MRT [38]: 3.12 h
inhibition in vivo at 40 mg/kg [39]: 49%
Vdss [40]: 2.12 L/kg
Activity [41]: Non-Toxic
Activity [42]: 56.7%
Activity [43]: Non-Toxic
inhibition in vivo at 20 mg/kg [44]: 31%
Activity [45]: Non-Toxic
Tmax [46]: 4 h
Activity [47]: 8.07%
